The target in test [1] is T1, Protein RecA (Mycobacterium tuberculosis, UniProt P9WHJ3).
T1 sequence (P9WHJ3 whole entry): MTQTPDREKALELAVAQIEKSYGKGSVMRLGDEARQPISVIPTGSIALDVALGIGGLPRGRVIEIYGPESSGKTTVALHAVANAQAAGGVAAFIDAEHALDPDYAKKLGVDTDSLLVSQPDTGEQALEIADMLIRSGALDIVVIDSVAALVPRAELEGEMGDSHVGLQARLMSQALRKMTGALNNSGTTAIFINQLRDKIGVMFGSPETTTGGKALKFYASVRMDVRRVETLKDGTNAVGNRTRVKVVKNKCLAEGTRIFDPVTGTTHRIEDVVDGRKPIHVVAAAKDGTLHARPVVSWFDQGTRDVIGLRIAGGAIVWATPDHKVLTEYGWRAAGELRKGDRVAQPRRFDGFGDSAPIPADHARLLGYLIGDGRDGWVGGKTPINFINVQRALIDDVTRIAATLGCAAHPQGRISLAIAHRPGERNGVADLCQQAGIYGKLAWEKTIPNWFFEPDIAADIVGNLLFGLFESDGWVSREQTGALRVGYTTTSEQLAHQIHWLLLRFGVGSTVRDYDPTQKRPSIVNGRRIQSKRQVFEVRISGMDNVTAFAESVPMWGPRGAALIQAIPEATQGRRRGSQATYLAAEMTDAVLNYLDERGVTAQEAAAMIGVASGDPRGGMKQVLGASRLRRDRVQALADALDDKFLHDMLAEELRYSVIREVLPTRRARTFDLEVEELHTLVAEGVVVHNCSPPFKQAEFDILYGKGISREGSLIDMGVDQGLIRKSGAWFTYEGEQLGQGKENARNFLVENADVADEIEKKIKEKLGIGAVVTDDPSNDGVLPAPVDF
The experiment in a line: Fluorescence Cell-Free Homogeneous Dose Retest to Identify Inhibitors of RecA-Intein Splicing Activity. [Related pubchem assays (depositor defined):AID2097, AID2223, AID489010, AID492950]. The class given is functional.

For test [2], the target named is T2, Calpain-2 catalytic subunit (Sus scrofa, UniProt P43367).
T2 sequence (P43367 whole entry): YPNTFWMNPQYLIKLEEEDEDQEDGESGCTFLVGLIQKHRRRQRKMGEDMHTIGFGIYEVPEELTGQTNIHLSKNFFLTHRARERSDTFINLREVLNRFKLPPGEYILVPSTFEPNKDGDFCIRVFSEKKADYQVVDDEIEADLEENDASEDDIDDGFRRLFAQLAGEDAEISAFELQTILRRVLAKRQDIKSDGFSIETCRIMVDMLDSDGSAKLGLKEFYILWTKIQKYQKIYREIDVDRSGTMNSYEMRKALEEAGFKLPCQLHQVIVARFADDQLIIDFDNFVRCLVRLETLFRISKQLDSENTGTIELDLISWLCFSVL
The experiment in a line: m-calpain protease blockers, concentration series – biochemical, fluorogenic peptide substrate, dose response (AID 1420). The format is functional.

Test [3] has as its target T3, Caspase-3 (Homo sapiens, UniProt P42574).
T3 sequence (P42574 whole entry): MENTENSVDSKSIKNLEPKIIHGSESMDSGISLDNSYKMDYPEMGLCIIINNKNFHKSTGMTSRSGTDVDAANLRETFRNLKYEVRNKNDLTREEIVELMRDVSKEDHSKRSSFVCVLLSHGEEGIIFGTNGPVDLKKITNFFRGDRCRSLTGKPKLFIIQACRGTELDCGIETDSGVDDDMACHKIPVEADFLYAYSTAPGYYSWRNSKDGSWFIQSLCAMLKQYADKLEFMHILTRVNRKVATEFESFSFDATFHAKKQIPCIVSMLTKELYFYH
The experiment in a line: SAR Analysis of small molecule inhibitors of Sentrin-specific proteases (SENPs) using a Caspase-3 Selectivity assay. [Related pubchem assays (depositor defined):AID2540, AID2599, AID434973, AID489001]. The class given is functional.

The target in test [4] is Serine/threonine-protein kinase Nek2 (Homo sapiens, UniProt P51955). The class given is functional.
In test [5] the target is Macrophage-stimulating protein receptor (Homo sapiens, UniProt Q04912). The experiment in a line: Navigating the Kinome. Panel member name: MST1R. The format is functional.
Test [6] addresses Glycogen synthase kinase-3 beta (Homo sapiens, UniProt P49841). The format is functional.
The target in test [7] is Casein kinase I isoform alpha (Homo sapiens, UniProt P48729). The class given is functional.
Test [8] concerns the target Aurora kinase B (Homo sapiens, UniProt Q96GD4). The class given is functional.
Test [9] concerns the target G protein-coupled receptor kinase 5 (Homo sapiens, UniProt P34947). The experiment in a line: Navigating the Kinome. Panel member name: GPRK5. The format is functional.
In test [10] the target is Dual specificity protein kinase CLK4 (Homo sapiens, UniProt Q9HAZ1). The format is functional.
Test [11] deals with Activated CDC42 kinase 1 (Homo sapiens, UniProt Q07912). The test can be described thus: Navigating the Kinome. Panel member name: ACK1. The class given is functional.
Test [12] deals with Cyclin-dependent kinase 5 (Homo sapiens, UniProt Q00535). The class given is functional.
Test [13] deals with Vascular endothelial growth factor receptor 1 (Homo sapiens, UniProt P17948). The class given is functional.
For test [14], the target named is Dual specificity mitogen-activated protein kinase kinase 1 (Homo sapiens, UniProt Q02750). The test can be described thus: Navigating the Kinome. Panel member name: MAP2K1. The format is functional.
Test [15] addresses Tyrosine-protein kinase receptor TYRO3 (Homo sapiens, UniProt Q06418). The format is functional.
The target in test [16] is ALK tyrosine kinase receptor (Homo sapiens, UniProt Q9UM73). The format is functional.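 Also: ALK tested as one member of a kinase panel screen.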
Test [17] deals with Dual specificity protein kinase CLK2 (Homo sapiens, UniProt P49760). The class given is functional.
Test [18] deals with Activin receptor type-1 (Homo sapiens, UniProt Q04771). The test can be described thus: Navigating the Kinome. Panel member name: ACVR1. The class given is functional.
The target of test [19] is Serine/threonine-protein kinase PAK 4 (Homo sapiens, UniProt O96013). The class given is functional.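 Also: value obtained within a kinome profiling panel in which PAK4 was one of the panel members.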
In test [20] the target is Mitogen-activated protein kinase kinase kinase kinase 4 (Homo sapiens, UniProt O95819). The format is functional.
Test [21] has as its target Protein kinase C theta type (Homo sapiens, UniProt Q04759). The experiment in a line: Navigating the Kinome. Panel member name: PRKCQ. The class given is functional.
Test [22] concerns the target Matrix metalloproteinase-14 (Homo sapiens, UniProt P50281). The experiment in a line: SAR confirmation of uHTS hits for a small molecule inhibitors of MT1-MMP activation in a fluorescence assay. The class given is functional.
A short description of test [23]: alpha-synuclein stem-loop luciferase translation blockers – H4 neuroglioma cells, luminescence, confirmation (AID 1988). The class given is functional, cell-based.
Test [24] deals with C-C chemokine receptor type 6 (Homo sapiens, UniProt P51684). The experiment in a line: antagonism of CCR6 beta-arrestin recruitment – cell-based, luminescent beta-arrestin readout, dose response (AID 504728). The class given is functional. In general terms: Recruitment of arrestin is a read-out of receptor activation apart from second messengers.

The source made the active and inactive calls.

Serine/threonine-protein kinase PAK 4, sequence (O96013 whole entry): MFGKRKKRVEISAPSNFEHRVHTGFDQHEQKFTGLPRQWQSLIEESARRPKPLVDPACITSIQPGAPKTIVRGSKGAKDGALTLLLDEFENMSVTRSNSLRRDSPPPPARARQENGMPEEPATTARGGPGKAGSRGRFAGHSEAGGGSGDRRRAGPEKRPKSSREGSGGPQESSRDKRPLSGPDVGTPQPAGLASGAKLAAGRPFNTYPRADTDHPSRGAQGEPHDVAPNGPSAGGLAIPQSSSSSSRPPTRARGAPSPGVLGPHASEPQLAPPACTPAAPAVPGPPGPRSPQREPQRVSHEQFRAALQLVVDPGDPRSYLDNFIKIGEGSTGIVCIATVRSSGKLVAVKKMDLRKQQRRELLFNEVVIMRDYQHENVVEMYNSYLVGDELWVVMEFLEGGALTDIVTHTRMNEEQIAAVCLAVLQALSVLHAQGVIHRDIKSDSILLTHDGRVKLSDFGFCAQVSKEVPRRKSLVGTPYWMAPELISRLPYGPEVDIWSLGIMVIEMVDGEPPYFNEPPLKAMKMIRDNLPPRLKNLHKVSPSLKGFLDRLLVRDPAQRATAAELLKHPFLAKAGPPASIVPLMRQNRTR
Activated CDC42 kinase 1, sequence (Q07912 whole entry): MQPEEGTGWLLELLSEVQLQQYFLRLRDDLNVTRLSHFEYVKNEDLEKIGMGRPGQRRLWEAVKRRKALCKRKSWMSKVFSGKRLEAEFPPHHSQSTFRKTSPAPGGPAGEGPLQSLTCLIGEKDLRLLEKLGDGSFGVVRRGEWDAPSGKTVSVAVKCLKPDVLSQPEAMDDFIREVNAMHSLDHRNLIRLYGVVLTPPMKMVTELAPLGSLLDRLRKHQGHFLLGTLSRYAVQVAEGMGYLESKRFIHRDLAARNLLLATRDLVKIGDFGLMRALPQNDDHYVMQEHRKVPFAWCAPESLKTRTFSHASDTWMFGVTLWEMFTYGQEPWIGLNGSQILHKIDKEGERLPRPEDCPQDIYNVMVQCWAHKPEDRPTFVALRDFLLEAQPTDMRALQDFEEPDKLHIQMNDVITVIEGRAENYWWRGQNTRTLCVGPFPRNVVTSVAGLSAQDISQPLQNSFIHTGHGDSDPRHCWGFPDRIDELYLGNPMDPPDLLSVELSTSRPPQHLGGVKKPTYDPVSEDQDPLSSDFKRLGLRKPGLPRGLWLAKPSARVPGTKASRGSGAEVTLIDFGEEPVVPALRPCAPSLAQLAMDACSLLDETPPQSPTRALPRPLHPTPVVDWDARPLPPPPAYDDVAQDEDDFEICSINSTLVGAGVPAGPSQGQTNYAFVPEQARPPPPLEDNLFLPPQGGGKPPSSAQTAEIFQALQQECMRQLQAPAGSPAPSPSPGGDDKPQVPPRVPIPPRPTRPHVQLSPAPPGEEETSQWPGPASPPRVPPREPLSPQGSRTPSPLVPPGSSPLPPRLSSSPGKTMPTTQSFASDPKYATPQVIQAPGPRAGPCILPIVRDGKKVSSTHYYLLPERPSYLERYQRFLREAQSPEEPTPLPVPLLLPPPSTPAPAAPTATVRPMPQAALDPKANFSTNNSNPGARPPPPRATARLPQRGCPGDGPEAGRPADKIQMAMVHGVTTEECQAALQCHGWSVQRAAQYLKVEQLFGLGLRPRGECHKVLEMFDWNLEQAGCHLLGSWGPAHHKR
Casein kinase I isoform alpha, sequence (P48729 whole entry, canonical isoform): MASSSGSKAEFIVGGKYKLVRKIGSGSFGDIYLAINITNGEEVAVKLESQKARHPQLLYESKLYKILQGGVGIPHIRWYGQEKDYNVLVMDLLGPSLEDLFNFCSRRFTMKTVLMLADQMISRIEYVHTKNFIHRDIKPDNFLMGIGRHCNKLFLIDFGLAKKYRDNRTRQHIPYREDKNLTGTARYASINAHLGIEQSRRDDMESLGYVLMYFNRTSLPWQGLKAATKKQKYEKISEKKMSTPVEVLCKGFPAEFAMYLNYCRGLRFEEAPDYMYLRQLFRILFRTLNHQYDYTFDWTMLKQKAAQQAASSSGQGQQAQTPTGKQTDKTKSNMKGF
Protein kinase C theta type, sequence (Q04759 whole entry): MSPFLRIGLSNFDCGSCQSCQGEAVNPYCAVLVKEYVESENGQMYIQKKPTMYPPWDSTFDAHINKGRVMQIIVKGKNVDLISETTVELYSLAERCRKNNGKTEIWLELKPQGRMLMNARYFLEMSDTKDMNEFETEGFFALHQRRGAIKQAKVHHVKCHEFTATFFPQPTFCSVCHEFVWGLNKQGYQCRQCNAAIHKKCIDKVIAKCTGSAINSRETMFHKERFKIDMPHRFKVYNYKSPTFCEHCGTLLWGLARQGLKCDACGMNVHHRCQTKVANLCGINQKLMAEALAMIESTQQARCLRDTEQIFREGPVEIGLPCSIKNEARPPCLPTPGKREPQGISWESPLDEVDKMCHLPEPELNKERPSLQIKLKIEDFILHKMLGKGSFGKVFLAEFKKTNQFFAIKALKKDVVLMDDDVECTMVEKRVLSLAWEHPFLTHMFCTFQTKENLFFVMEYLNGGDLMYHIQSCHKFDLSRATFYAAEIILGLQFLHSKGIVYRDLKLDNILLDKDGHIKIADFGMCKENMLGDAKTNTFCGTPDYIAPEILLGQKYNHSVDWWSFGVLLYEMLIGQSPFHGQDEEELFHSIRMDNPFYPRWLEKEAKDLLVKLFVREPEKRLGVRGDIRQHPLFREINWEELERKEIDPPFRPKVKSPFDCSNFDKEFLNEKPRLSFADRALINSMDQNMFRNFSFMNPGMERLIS
Activin receptor type-1, sequence (Q04771 whole entry): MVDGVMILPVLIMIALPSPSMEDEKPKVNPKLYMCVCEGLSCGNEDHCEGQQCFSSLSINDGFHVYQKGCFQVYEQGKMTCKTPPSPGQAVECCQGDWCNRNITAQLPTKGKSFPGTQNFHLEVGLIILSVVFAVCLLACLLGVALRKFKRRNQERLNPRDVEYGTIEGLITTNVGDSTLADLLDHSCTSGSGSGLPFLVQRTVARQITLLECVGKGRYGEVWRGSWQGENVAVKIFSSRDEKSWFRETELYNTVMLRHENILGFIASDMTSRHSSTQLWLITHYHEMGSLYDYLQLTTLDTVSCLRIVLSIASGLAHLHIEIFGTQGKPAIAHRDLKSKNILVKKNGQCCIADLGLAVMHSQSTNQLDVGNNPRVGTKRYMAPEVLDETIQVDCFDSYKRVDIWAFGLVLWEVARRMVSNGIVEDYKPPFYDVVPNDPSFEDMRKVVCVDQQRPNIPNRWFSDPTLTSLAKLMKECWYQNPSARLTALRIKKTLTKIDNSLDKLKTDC
Glycogen synthase kinase-3 beta, sequence (P49841 whole entry, canonical isoform): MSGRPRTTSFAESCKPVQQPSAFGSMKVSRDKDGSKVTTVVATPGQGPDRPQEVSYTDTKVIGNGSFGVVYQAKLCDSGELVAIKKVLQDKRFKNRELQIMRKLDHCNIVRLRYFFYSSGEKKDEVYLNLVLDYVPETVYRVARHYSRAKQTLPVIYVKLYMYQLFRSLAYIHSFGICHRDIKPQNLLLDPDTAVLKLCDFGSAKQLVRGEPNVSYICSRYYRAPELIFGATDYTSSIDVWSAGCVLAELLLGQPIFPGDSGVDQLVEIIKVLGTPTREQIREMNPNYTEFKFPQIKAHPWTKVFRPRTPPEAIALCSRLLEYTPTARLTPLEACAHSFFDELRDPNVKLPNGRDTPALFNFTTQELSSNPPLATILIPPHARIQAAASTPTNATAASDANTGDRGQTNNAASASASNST
Tyrosine-protein kinase receptor TYRO3, sequence (Q06418 whole entry): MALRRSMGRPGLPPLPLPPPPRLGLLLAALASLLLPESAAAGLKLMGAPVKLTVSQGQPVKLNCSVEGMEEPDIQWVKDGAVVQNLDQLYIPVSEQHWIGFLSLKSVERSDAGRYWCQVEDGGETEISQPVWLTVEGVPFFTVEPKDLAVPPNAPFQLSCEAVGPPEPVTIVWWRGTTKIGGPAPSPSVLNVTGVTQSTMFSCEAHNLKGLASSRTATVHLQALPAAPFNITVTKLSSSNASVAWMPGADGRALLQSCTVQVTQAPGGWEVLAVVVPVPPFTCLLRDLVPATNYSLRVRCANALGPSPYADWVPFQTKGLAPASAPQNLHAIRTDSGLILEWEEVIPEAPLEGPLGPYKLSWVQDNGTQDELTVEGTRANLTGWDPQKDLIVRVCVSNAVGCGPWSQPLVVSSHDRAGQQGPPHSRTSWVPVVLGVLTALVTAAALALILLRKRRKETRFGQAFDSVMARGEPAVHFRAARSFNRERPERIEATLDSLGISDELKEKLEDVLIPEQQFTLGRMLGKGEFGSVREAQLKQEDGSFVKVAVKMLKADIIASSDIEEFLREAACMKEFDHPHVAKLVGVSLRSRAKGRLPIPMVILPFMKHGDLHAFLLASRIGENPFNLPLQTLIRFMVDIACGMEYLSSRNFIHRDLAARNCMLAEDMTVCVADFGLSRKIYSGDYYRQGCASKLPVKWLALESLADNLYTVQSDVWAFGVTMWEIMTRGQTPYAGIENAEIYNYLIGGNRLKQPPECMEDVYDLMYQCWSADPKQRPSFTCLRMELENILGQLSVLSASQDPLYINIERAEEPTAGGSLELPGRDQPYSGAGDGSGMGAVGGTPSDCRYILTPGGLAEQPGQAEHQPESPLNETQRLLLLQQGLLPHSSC
Cyclin-dependent kinase 5, sequence (Q00535 whole entry): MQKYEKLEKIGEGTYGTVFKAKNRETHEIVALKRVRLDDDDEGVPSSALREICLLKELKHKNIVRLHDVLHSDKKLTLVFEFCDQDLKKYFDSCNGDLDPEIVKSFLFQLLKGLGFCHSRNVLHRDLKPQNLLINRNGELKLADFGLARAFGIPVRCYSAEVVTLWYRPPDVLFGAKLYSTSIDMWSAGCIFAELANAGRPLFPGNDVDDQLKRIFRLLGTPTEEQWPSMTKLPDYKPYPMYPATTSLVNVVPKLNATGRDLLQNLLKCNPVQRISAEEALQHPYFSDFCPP

As usually defined, the EC50 is the concentration that produces a half-maximal response. As a reminder, the IC50 is the point on the concentration scale where inhibition reaches its midpoint. As to `Cc1ccc(NC(=O)COc2cccc(/C=C3\SC(=S)N(CCC(=O)O)C3=O)c2)cc1Cl`, the EC50 in test [1] was 19.1 µM (active). In addition, the IC50 is > 50 µM (not active) in test [2] and > 99 µM (inactive) in [3].
The Ki is the dissociation constant of the complex between target and ligand, obtained from inhibition or displacement. Regarding `COc1cccc(C(C)NC(=O)c2ccc(-c3ccncc3)s2)c1` (centres undefined), the Ki is > 3.16 µM (inactive) in test [4]; > 3.98 µM (inactive) in test [5]; 1.26 µM (active) in [6]; 1.58 µM (active) in [7]; 0.398 µM (active) in test [8]; 1 µM (active) in test [9]. Moreover, the Ki in [10] was 0.316 µM (active); in test [11], > 3.98 µM (inactive); in [12], > 3.16 µM (inactive); in [13], > 3.98 µM (inactive); in test [14], > 3.16 µM (inactive); in test [15], > 3.16 µM (inactive). Also, the Ki is > 6.31 µM (inactive) in test [16]; > 3.98 µM (inactive) in test [17]; 2.51 µM (active) in [18]; > 5.01 µM (inactive) in test [19]; 5.01 µM (active) in test [20]; 0.316 µM (active) in test [21].
Regarding `O=Nc1c(-c2c(O)[nH]c3cc(Br)ccc23)[nH]c2ccccc12`, the results for the 50% inhibitory concentration (IC50) in [22] and in [24] were 8.89 µM (active) and > 66.6 µM (inactive), respectively. Also, in [23], the EC50 is 9.31 µM (active).

(Values after ChEMBL document CHEMBL1201862, “PubChem BioAssay data set” (2004).)
